The text below walks through data of patent US20240269157A1, “COMPOSITIONS AND METHODS FOR OVERCOMING MICROENVIRONMENT-MEDIATED RESISTANCE VIA E-SELECTIN TARGETING” (GLYCOMIMETICS, INC., priority 2021, published 2024).

Each structure is given as a SMILES string.

One assay deals with AML cells in bone marrow. As to the kind of experiment: Intra-vital 2-photon imaging of AML cell motility in bone marrow. Format: in vivo, triple reporter mice. The conditions noted are these: from 2.2 μm/min, p<0.001; i.v. administration. From the text:
(§1) Intra-vital imaging was employed to investigate the effects of Compound B on AML cell motility in the bone marrow of triple reporter mice (Blood: dextran-TRITC; Host T-cells: DsRed; Host myeloid CD11 cells: EYFP) injected with AML cells carrying a turquoise fluorescent protein reporter gene. […] Individual cells were dislodged from the niche and traveled long-distance (FIG. 17C). The combined inhibition of E-selectin and CXCR4 depleted bone marrow vascular niche areas of leukemia cells.

In a further assay the test system is leukemia cells in the BM. To be noted: in vivo; Zhang et al., 2016; cited from earlier work.
Assay [1] concerns patient-derived primary AML xenograft (JAK2 and c-Kit). As to the kind of experiment: PDX model (mutations in JAK2 and c-Kit), LSC retention and CyTOF of BM cells. Format: in vivo, mice.
Text: as §1
In order to better understand how the augmented AML mobilization improves the efficacy of AML therapy, BM cells from PDX mice treated for 2 weeks with Compound A, Compound B, venetoclax/HMA (Ven/HMA), and their combinations were analyzed by single-cell proteomics (CyTOF). […] However, pharmacological antagonists of E-selectin (Compound A) or E-selectin/CXCR4 (Compound B) protected endothelial cells from Ven/HMA-induced detrimental insults through upregulation of survival signaling cascades, including pAKT, pERK, pMAPK and […] eNOS expression in endothelial cells compared to Ven/HMA treatment alone.

For assay [2], the system named is leukemia cells with ECs and MSCs. The conditions noted are these: Zhang et al., 2016, cited from earlier work.
Another assay relates to luc-MV4.11 cells. The assay is described as follows: MV4.11 AML model survival. Format: in vivo, NSG mice. To be noted: 40 mg/kg Compound A i.p., 100 mg/kg venetoclax oral, 14 days once daily. The protocol: To evaluate the efficacy of targeting E-selectin with Compound A in combination with venetoclax, an in vivo MV4.11 AML model was employed (FIG. 16).
luc-MV4.11 cells (5×10^6 cells/mouse) were transplanted into NSG mice. Mice were divided into four groups: vehicle treatment only; 40 mg/kg of Compound A (intraperitoneal, 14 day once daily); 100 mg/kg venetoclax (oral, 14 days once daily), and a combination of 40 mg/kg Compound A and 100 mg/kg venetoclax. Drug treatment was initiated on day 10 post-transplantation.

Setting [3] is: in combination with Ven/HMA, 2 weeks, CyTOF of BM cells.

Regarding `CCC1CC(C(=O)NCCNCc2ccc(CN3CCCNCCNCCCNCC3)c(Br)c2)CC(OC2OC(CO)C(O)C(O[C@@H](CC3CCCCC3)C(=O)O)C2NC(C)=O)C1OC1OC(C)C(O)C(O)C1O` (stereo partly drawn) [Compound B], the AML cell motility with AML cells in bone marrow is on record as 5.4 μm/min. The “leukemia cells in the BM” value in the assay on leukemia cells in the BM is listed as “effectively reduced”. In addition, in assay [1] (setting [3]), the “levels of E-selectin ligand, mTOR, pFAK, pRb, cMyc” value is recorded as “diminished”; the “p21 and cleaved caspase3” value is listed as “increasing”. Also, the “protection of MSC” value in assay [1] (mouse, in vivo) is recorded as “protected”. Moreover, the “protection of endothelial cells from Ven/HMA-induced detrimental insults” value in assay [1] (upregulated pAKT, pERK, pMAPK, decreased eNOS vs Ven/HMA alone) was “protected”. Also, in assay [2], the “leukemia cell adhesion to ECs and MSCs” value was “markedly reduced”. Also, the “BM-mediated protection of leukemic cells during FLT3-targeted therapy” value in assay [2] (in vitro) is reported as “eliminated”.

For the compound `CC1(C)CCC(CN2CCN(c3ccc(C(=O)NS(=O)(=O)c4ccc(NCC5CCOCC5)c([N+](=O)[O-])c4)c(Oc4cnc5[nH]ccc5c4)c3)CC2)=C(c2ccc(Cl)cc2)C1` [venetoclax], in the assay on luc-MV4.11 cells, the “median survival time (MST)” value came out at 46 days.
